# Where a name gives a salt, the structure may show the parent alone.
# Test system: Zymosan Stimulated Macrophages (arachidonic acid release)
# Assay: Test A: Inhibition of Arachidonic Acid Release from Zymosan Stimulated Macrophages
# Assay type: cell-based, mouse (female MF1 mice)
# Settings: Mus musculus, Macrophage, inhibition of arachidonic acid release, zymosan stimulated mouse peritoneal macrophages; tested at 100, 50, 20, 10, 5 and 1 μM; ≤100 μM considered active; read-out: Test A IC50
# Protocol: Test A was carried out in the following way:
# Inhibition of Arachidonic Acid Release from Zymosan Stimulated Macrophages
# Female MF1 mice (weighing 20 to 25 g) were killed using a rising concentration of CO2. The mice were laid on their backs and the abdomens wiped with 70% alcohol. The skin was pulled back, exposing the peritoneal wall. Medium A (5 ml) (see below) was injected into the peritoneal cavity of each mouse followed by approximately 1 ml of air using a 20 ml syringe and a 21G×40 mm needle in order to form a suspension of macrophage cells. The medium and cells were then removed using a 19G×40 mm needle. The resulting suspension was returned to a sterile beaker kept on ice. The extracts from all the mice were pooled and this pooled cell suspension was counted using a Coulter counter and adjusted to a final cell count of 1-1.3×10^6 cells/ml prior to labelling with [^3 H]-arachidonic acid. Typically five mice provided sufficient cells for each multiwell plate.
# Sufficient [^3 H]-arachidonic acid in ethanol to give a final concentration of 1.6 μCi/ml (equivalent to 40 μCi/plate) was blown to dryness under nitrogen. The arachidonic acid was then resuspended in 1 or 2 ml of the cell suspension which was then mixed with the remainder of the cell suspension in a centrifuge bottle. The labelled cell suspension was then plated out into sterile plastic 96 flat-bottomed well plates (250 μl per well) and incubated overnight at 37° C. in a moist atmosphere of 5% CO2, 95% air.
# The following day, non-adherent cells were removed by washing 3 times with sterile phosphate buffered saline (PBS). The adherent peritoneal macrophages were then cultured for a further 24 hours in the presence or absence of drugs, in medium B (see below) at 37° in a 5% CO2 atmosphere in order to measure the effects of drugs on the spontaneous release of arachidonic acid in the absence of stimulus. After this incubation, supernatants were removed to give media 1 and stored in sealed multi-well plates at 4° C. prior to scintillation counting. Drugs which potentiated spontaneous release of arachidonic acid (125% of controls) were deemed to be toxic at the concentration at which this phenomenon occurred. The supernatants were replaced by fresh medium C containing fresh drug and a stimulus. Three drugs were tested at six concentrations (100, 50, 20, 10, 5 and 1 μM) in replicates of four on each plate. The other wells contained controls consisting of a positive control (e.g. dexamethasone), medium (B) only and medium C only.
# Incubation was then continued for a further 5 hours, whereupon the supernatants were collected to give media 2 and the adherent cells washed with PBS. The cells were then lysed with 100 μl of 0.1% TRITON® X100 in a 0.1% solution of bovine serum albumin in 0.9% saline and mechanically disrupted to give cell lysates. These supernatants (media 2) and cell lysates (Cells) were also stored in sealed multi-well plates at 4° C. prior to scintillation counting. 200 μl aliquots of media, or 100 μl aliquots of cells were counted using 2 ml of OPTIPHASE "HIGH SAFE" (Trademark of LKB) as scintillant.
# The percentage of arachidonic acid released was calculated using the mean values for each group of 4 wells in the following equation. [formula]
# The value for the arachidonic acid release in the absence of stimulus (spontaneous, cpm of media 2) from cells which had been exposed to neither stimulus nor drug was subtracted from all equivalent values (cpm media 2, stimulated with or without drug) to give the net stimulated release. The percentage inhibition of arachidonic acid release caused by a drug may then be calculated using the following equation. [formula]
# Compounds of formula I were tested at six concentrations (100, 50, 20, 10, 5 and 1 μM) and IC50 values calculated. Compounds with IC50 values≤100 μM are considered to be active. Advantageous compounds have an IC50 value<50 μM.
# Medium A (for peritoneal lavage) […]
row,IC50 [µM],SMILES
1,70,"CC(C)(NCC(O)Cn1ccnc1)c1ccc(C(=O)NC2CCCCC2)cc1 (stereo not drawn) [Example 48, N-Cyclohexyl-4-{1-[2-hydroxy-3-(imidazol-1-yl)propylamino]-1-methylethyl}benzamide]"
2,70,"CC1(C)COC(c2ccc(C(C)(C)NCC(O)Cn3ccnc3)cc2)=N1 (stereo not drawn) [Example 49, 1-{1-[4-(4,4-Dimethyl-2-oxazolin-2-yl)phenyl]-1-methylethylamino}-3-(imidazol-1-yl)propan-2-ol hemihydrate]"
3,87,"CSc1ccc(OCC(C)(C)NCC(O)Cn2ccnc2)cc1 (stereo not drawn) [Example 51, 3-(Imidazol-1-yl)-1-[2-(4-methylthiophenoxy)-1,1-dimethylethylamino]propan-2-ol]"
4,23,"CC(C)(COc1ccc(Cl)cc1)NCC(O)Cn1ccnc1 (stereo not drawn) [Example 52, 1-[2-(4-Chlorophenoxy)-1,1-dimethylethylamino]-3-(imidazol-1-yl)propan-2-ol]"
5,99,"CC(C)(COc1ccccc1)NCC(O)Cn1ccnc1 (stereo not drawn) [Example 53, 3-(Imidazol-1-yl)-1-(2-phenoxy-1,1-dimethylethylamino) propan-2-ol]"
6,7,"CC(C)(NCCCn1cnc(CCNS(=O)(=O)c2ccccc2)c1)c1ccc(Cl)cc1 [Example 54, N-[2-(1-{3-[1-(4-chlorophenyl)-1-methylethylamino]-propyl}imidazol-4-yl)ethyl]benzenesulphonamide]"
7,7,"CC(C)(NCCCn1cnc(CCNC(=O)c2ccccc2)c1)c1ccc(Cl)cc1 [Example 55, N-[2-(1-(3-[1-(4-chlorophenyl)-1-methylethylamino]propyl}imidazol-4-yl)ethyl]benzamide]"
8,21,"CC(C)(NCCCn1ccnc1)c1ccc(CCNC(=O)c2ccccc2)cc1 [Example 57, N-[2-(4-{1-[3-(imidazol-1-yl)propylamino]-1-methylethyl}phenyl)-ethyl]benzamide]"
9,20,"CCCCNC(=O)NCCc1ccc(C(C)(C)NCCCn2ccnc2)cc1 [Example 58, N-butyl-N'-[2-(4-{1-[3-(imidazol-1-yl)propylamino]-1-methylethyl}phenyl)ethyl]urea]"
10,9,"CCC(CC)(NCCCn1cnc(CCNC(=O)c2ccc(OC)cc2)c1)c1ccccc1 [Example 61, N-(2-{1-[3-(1-ethyl-1-phenylpropylamino)propyl]-imidazol-4-yl}ethyl)-4-methoxybenzamide]"
11,14,"CCC(CC)(NCCCn1cnc(CCNC(=O)c2ccc(C#N)cc2)c1)c1ccccc1 [Example 62, 4-cyano-N-(2-{1-[3-(1-ethyl-1-phenylpropylamino)propyl]imidazol-4-yl}ethyl)benzamide]"
12,14,"CC(C)(NCC(O)Cn1cnc(CCNC(=O)c2ccccc2)c1)c1ccc(Cl)cc1 (stereo not drawn) [Example 63, N-[2-(1-{3-[1-(4-chlorophenyl)-1-methylethylamino]-2-hydroxypropyl}imidazol-4-yl)ethyl]benzamide]"
13,88,"COC(=O)CN(CCCn1ccnc1)CCOc1ccc(Cl)cc1 [Example 65, methyl N-[2-(4-chlorophenoxy)ethyl]-N-[3-(imidazol-1-yl)propyl]glycinate]"
14,24,"OCCN(CCCn1ccnc1)CCOc1ccc(Cl)cc1 [Example 66, 2-{N-[2-(4-chlorophenoxy)ethyl]-N-[3-(imidazol-1-yl)propyl]amino}ethanol]"
15,20,"CCCCS(=O)(=O)Oc1ccc(OCCNCCCn2ccnc2)cc1 [Example 67, 4-{2-[3-(imidazol-1-yl)propylamino]ethoxy}phenyl 1-butane sulphonate]"
16,100,"CC(C)(C[S+]([O-])c1ccc(Cl)cc1)NCCCn1ccnc1 (stereo not drawn) [Example 68, N-[2-(4-chlorophenylsulphinyl)-1,1-dimethylethyl]-3-(imidazol-1-yl)propylamine dihydrochloride]"

row,IC50 [µM],SMILES
1,50,"Cc1cc(S(=O)(=O)CC(C)(C)NCCCn2ccnc2)c(C)cc1Cl [Example 69, N-[2-(4-chloro-2,5-xylylsulphonyl)-1,1-dimethylethyl]-3-(imidazol-1-yl)propylamine dihydrochloride hemihydrate]"
2,84,"CC(C)(CS(=O)(=O)c1ccc(C(C)(C)C)cc1)NCCCn1ccnc1 [Example 70, N-[2-(4-t-butylphenylsulphonyl)-1,1-dimethylethyl]-3-(imidazol-1-yl)-propylamine dihydrochloride]"
3,23,"CC(C)(NCCCn1ccnc1)c1ccc(OS(=O)(=O)c2ccccc2)cc1 [Example 71, 4-{1-[3-(imidazol-1-yl)propylamino]-1-methylethyl}phenyl benzenesulphonate]"
4,24,"CCCCS(=O)(=O)Oc1ccc(C(C)(C)NCCCn2ccnc2)cc1 [Example 72, 4-{1-[3-(imidazol-1-yl)propylamino]-1-methylethyl}phenyl 1-butanesulphonate]"
5,25,"CC(C)(NCCCn1ccnc1)c1ccc(Cl)c(NC(=O)c2ccccc2)c1 [Example 73, 2'-chloro-5'-{1-[3-(imidazol-1-yl)propylamino]-1-methylethyl}benzanilide]"
6,82,"CCCOC(=O)c1ccc(C(C)(C)NCC(O)Cn2ccnc2)cc1 (stereo not drawn) [Example 74, propyl 4-{1-[2-hydroxy-3-(imidazol-1-yl)propylamino]-1-methylethyl}benzoate]"
7,26,"CC(C)(COc1ccccc1)NCCCCCn1ccnc1 [Example 75, 5-(imidazol-1-yl)-N-(1,1-dimethyl-2-phenoxyethyl)pentylamine]"
8,16,"CC(C)(COc1ccccc1)NCCCn1cnc(CCNC(=O)c2ccccc2)c1 [Example 76, N-(2-{1-[3-(1,1-dimethyl-2-phenoxyethylamino)-propyl]imidazol-4-yl}ethyl)benzamide]"
9,12,"CC(C)(COc1ccccc1)NCCCn1cnc(CCNS(=O)(=O)c2ccccc2)c1 [Example 77, N-(2-{1-[3-(1,1-dimethyl-2-phenoxyethylamino)propyl]imidazol-4-yl}ethyl]benzene-sulphonamide]"
10,92,"CC(C)(COC(=O)c1ccccc1)NCCCn1ccnc1 [Example 78, 2-[3-(imidazol-1-yl)propylamino]-2,2-dimethylethyl benzoate dihydrochloride]"
11,20,"CC(C)(COC(=O)c1ccc(Cl)cc1)NCCCn1ccnc1 [Example 79, 2-[3-(imidazol-1-yl)propylamino]-2,2-dimethylethyl 4-chlorobenzoate dihydrochloride]"
12,13,"CC(C)(COCc1ccc(Cl)cc1)NCCCn1ccnc1 [Example 80, N-[2-(4-chlorobenzyloxy)-1,1-dimethylethyl]-3-(imidazol-1-yl)propylamine]"
13,65,"c1ccc(CCCNCCCCCn2ccnc2)cc1 [Example 81, N-(3-phenylpropyl)-5-imidazol-1-ylpentylamine 0.75 hydrate]"
14,17,"CCCCNCc1cn(CCCNC(C)(C)c2ccc(Cl)cc2)cn1 [Example 82, 3-[4-(butylaminomethyl)imidazol-1-yl]-N-[1-(4-chlorophenyl)-1-methylethyl]propylamine]"
15,90,"CC(C)(NCc1ncc[nH]1)c1ccc(Cl)cc1 [Example 83, 1-(4-chlorophenyl)-N-(imidazol-2-ylmethyl)-1-methylethylamine]"
16,15,"CC(C)(NCCCc1c[nH]cn1)c1ccc(Cl)cc1 [Example 84, N-[1-(4-chlorophenyl)-1-methylethyl]-3-(imidazol-4(5)-yl)propylamine]"

# Same assay, conditions: Mus musculus, Macrophage, read-out: Test A IC50
row,SMILES,IC50 [µM]
1,"CC(C)(NCCCn1ccnc1)c1ccc(-c2ccc(O)cc2)cc1 [Example 59, 4'-{1-[3-(imidazol-1-yl)propylamino]-1-methylethyl}biphenyl-4-ol]",8
